Data taken from patent US6979747B2, “Antioxidants, preparation processes and their uses” (Centre National de la Recherche Scientifique (CNRS), priority 1999, dated 2005).

Experiments:
HIV-1/Ba-L [1] = assay: Combination of I-152 with AZT in MDMs infected with HIV-1/Ba-L (Chou combination index); assay type: cell-based; details: I-152 combined with AZT
Protocol: Viral replication was measured by assaying the reverse transcriptase activity in culture supernatants using the RetroSys kit from Innovagen, following the recommendations of the company.
The compound I-152 and its derivatives are prepared extemporaneously by being dissolved in dimethyl sulfoxide (DMSO) at the concentration of 100 mM. They are subsequently stored at −20° C. after having been diluted 10 fold in phosphate buffer (PBS).
The pro-GSH compounds of the “I-152 family” are preferably administered as adjuvants therapeutic for current antiretrovirals. The inventors have thus attempted to measure in vitro the effects of I-152 with respect to the anti-HIV effectiveness of these molecules. This study was carried out using macrophages derived from human blood monocytes infected by the HIV-1/Ba-L strain and according to the methodology described by J. and T C. Chou for quantifying the synergistic effects, additive or antagonistic, between two molecules.

HIV-1 LAI = assay: Antiviral activity in quiescent or PHA-P activated PBMCs infected with HIV-1 LAI; assay type: cell-based; details: for decrease of viral replication: PBMCs activated by PHA-P
Protocol: For some experiments, the PBMCs and the PBLs are activated for 48 h with 1 μg/ml of a mitogen, PHA-P (Difco Laboratories). The PBMCs and the PBLs are cultured in medium A (quiescent) or B (activated). The cells are cultured at 37° C. in an atmosphere saturated with moisture under 5% of CO2. The culture supernatants are removed and the culture media are replaced every three or four days. At each renewal of the culture media, the cell viability is evaluated by coloring with trypan blue or by microscopic observation.
The MDMs were infected with the reference isolate with macrophage tropism, HIV-1/Ba-L. The PBMCs and the PBLs were infected with the reference isolate with lymphocyte tropism HIV-1 LAI. The viral stock were formed by amplifying these strains in vitro using umbilical blood mononucleated cells (UBM(s) preactivated with 1 μg/ml of PHA-P and cultured in medium A supplemented by 20 IU/ml of IL-2. In order to remove the soluble factors, such as cytokines, the culture supernatants were ultracentrifuged at 360 000 g for 5 min, and the pellets were resuspended in RPMI 1640. The viral stocks thus formed were subsequently titred using PBMCs activated with PHA-P. The TCID50s (50% Tissue Culture Infectious Dose) were calculated using the Kärber formula.
A million MDMs were infected with 10 000 TCID50s of the HIV-1/Ba-L strain. This amount of virus corresponds to a multiplicity of infection (m.o.i.) equal to 0.01. The excess of virus is removed 24 h after by washing with cells using RPMI 1640. The PBLs and the PBMCs were infected with 10 000 TCID50s of the HIV-1 LAI strain (moi=0.01). The cells were washed at the end of the second day of infection.
The viral replication is measured by assaying the RT activity in the culture supernatants according to the technique described by F. Rey et al. (Biochem. Biophys. Res. Comm., 1984, 121, 126-133). The radioactivity incorporated during the extension of the complementary strand of a poly-rA synthetic matrix in the presence of an oligo-dT12-18 primer and of a radiolabeled substrate, [^3H-methyl]thymidine-5′-triphosphate ([^3H]TPP), makes it possible to assay the enzymatic activity of RT. 400 μl of supernatant are ultracentrifuged at 360 000 g for 5 min. The RT is released by lysis of the viral pellet in 20 μl of NTE-Triton (100 mM NaCl, 10 mM Tris, 1 mM EDTA, 0.1% Triton X-100). These 20 μl are subsequently incubated with 40 μl of the following reaction mixture: 62.5 mM Tris, pH 7.8; 25 mM KCl; 6.25 mM MgCl2; 1.25 mM dithiothreitol (DTT); 2.5×10^−3 ODU oligo-dT12-18 and poly-rA, 5.55×10^−3 TBq {^3H]TTP. After one hour at 37° C., the enzymatic reaction is halted and the newly synthesized strands are precipitated for 20 min at 4° C. by the addition of 1 ml of sodium pyrophosphate (NaPP), of 50 μl of yeast DNA (0.1 mg/ml in 5% trichluoroacetic acid (TCA)), and of 4 ml of 20% TCA. The mixture is filtered using a cellulose acetate membrane (Millipore) which retains the radiolabeled poly-dT chains. The filter is washed using 20 ml of 5% TCA and the residual water is removed by addition of 25 μl of 70% ethanol. The filter is dried in an oven for 10 minutes at 80° C. and is then introduced into vials containing 8 ml of liquid scintillant. The β radioactivity is quantified by means of a scintillation counter (Packard Bell). The results are expressed in pM of [^3H]-TMP incorporated/h/ml of supernatant or, more simply, in cpm/h/ml.
The PBMCs, quiescent or activated by PHA-P, were infected by the reference strain with lymphocyte tropism HIV-1 LAI. All the culturings were carried out in parallel and the drugs were maintained throughout the culturing.

[2] = test system: total glutathione (GSH+GSSG); assay: Total intracellular glutathione in quiescent PBMCs; assay type: cell-based, human
GSH = assay: Intracellular GSH in MDMs stimulated with LPS and IFN-γ; assay type: cell-based, human; details: MDMs stimulated with LPS (1 μg/ml) and IFN-γ (100 IU/ml)
Protocol: The intracellular GSH was assayed by means of the assay kit sold by Cayman. This method for assaying glutathione is an adaptation of that described by O. W. Griffith et al. (1980). Tumor necrosis factor (TNF-α), like the oxygen-comprising or nitrogen-comprising radical components, plays a major role in the apoptotic processes associated with infection the HIV. Furthermore, the radical components can promote the synthesis of this proinflammatory cytokine. For this reason, the effects of I-152 in decreasing the synthesis of TNF-α were thus looked for in MDMs stimulated by a bacterial lipopolysaccharide and interferon (IFN-γ).

HIV-1/Ba-L [3] = assay: Antiviral activity in MDM cultures infected with HIV-1/Ba-L (RT activity in culture supernatants); assay type: cell-based; details: Human immunodeficiency virus 1, BAL; MDMs infected with 1 000 TCID50 (m.o.i. 0.001); read-out: 50% effective dose (ED)

SMILES: CC(=O)N[C@@H](CS)C(=O)NCCSC(C)=O [I-152, N-(N-acetyl-L-cysteinyl)-S-acetylcysteamine]
- combination index (CI) (HIV-1/Ba-L [1]): less than 1
- inhibition at 125 µM (HIV-1 LAI; Human immunodeficiency virus 1, PBMC, quiescent PBMCs, 125 μM, read-out: inhibition of viral replication): 88%
- inhibition at 250 µM (HIV-1 LAI; Human immunodeficiency virus 1, PBMC, quiescent PBMCs, 250 μM, read-out: inhibition of viral replication): 97%
- decrease of viral replication (HIV-1 LAI; 125 μM): 25%
- decrease of viral replication (HIV-1 LAI; 250 μM): 42%
- times more active than NAC ([2]; from concentrations supplementing the culture medium giving equivalent glutathione): 120 times
- intracellular glutathione at high concentration (in words) ([2]; quiescent PBMCs, 250 μM): decrease
- effect on intracellular level of glutathione (in words) ([2]; quiescent PBMCs, 24 h treatment): increases the intracellular level of glutathione
- intracellular concentration of total glutathione ([2]; quiescent PBMCs, dose 125 μM): 2.64 ± 0.13 µM
- concentration of GSH (in words) (GSH): increases the concentration of GSH
- EC50 (HIV-1/Ba-L [3]): 3000 nM
- cytotoxicity (in words) (PBMCs): not cytotoxic
